Laboratory results: the NIST ThermoML archive (doi:10.1021/je300358u)

Tests used:
[1] = 101 kPa, Liquid
[2] = xn = mol fraction of the nth substance listed; details: 101 kPa, Liquid
[3] = mn = molality of the nth substance listed, in mol/kg; details: 101 kPa, Liquid

CN(C)C=O [dimethylformamide]
[1]
Details | mass density [kg/m3]
293.15 K | 948.742
298.15 K | 943.976
303.15 K | 939.201
308.15 K | 934.425

CN(C)C=O [dimethylformamide] + O
mass density [kg/m3], [2]
Details | 293.15 K | 298.15 K | 303.15 K | 308.15 K
x2 = 0 | 948.742 | 943.976 | 939.201 | 934.425
x2 = 0.1 | 953.736 | 948.984 | 944.221 | 939.444
x2 = 0.2 | 959.305 | 954.568 | 949.818 | 945.04
x2 = 0.3 | 965.7 | 960.987 | 956.248 | 951.488
x2 = 0.4 | 972.992 | 968.301 | 963.582 | 958.821
x2 = 0.5 | 980.854 | 976.205 | 971.522 | 966.807
x2 = 0.6 | 988.587 | 984.021 | 979.424 | 974.79
x2 = 0.7 | 995.526 | 991.172 | 986.773 | 982.324
x2 = 0.8 | 999.822 | 995.944 | 992.004 | 988.003
x2 = 0.9 | 999.742 | 996.891 | 993.926 | 990.852
x2 = 0.92 | 999.208 | 996.65 | 993.962 | 991.147
x2 = 0.94 | 998.608 | 996.378 | 993.992 | 991.46
x2 = 0.96 | 998.059 | 996.181 | 994.123 | 991.894
x2 = 0.98 | 997.768 | 996.264 | 994.548 | 992.639

NC(N)=O [urea] + CN(C)C=O
mass density [kg/m3], [3]
Details | m1 = 0.02524 | m1 = 0.05973 | m1 = 0.07556 | m1 = 0.1157 | m1 = 0.1479 | m1 = 0.1749 | m1 = 0.2003 | m1 = 0.2305
293.15 K | 949.268 | 949.989 | 950.317 | 951.155 | 951.829 | 952.395 | 952.924 | 953.553
298.15 K | 944.504 | 945.228 | 945.556 | 946.396 | 947.074 | 947.644 | 948.173 | 948.805
303.15 K | 939.731 | 940.469 | 940.781 | 941.642 | 942.307 | 942.893 | 943.423 | 944.061
308.15 K | 934.955 | 935.685 | 936.015 | 936.861 | 937.543 | 938.117 | 938.649 | 939.284

NC(N)=O [urea] + O
mass density [kg/m3], [3]
Details | m1 = 0.02557 | m1 = 0.05326 | m1 = 0.07468 | m1 = 0.09388 | m1 = 0.1236 | m1 = 0.1442 | m1 = 0.1762 | m1 = 0.2005
293.15 K | 998.624 | 999.077 | 999.427 | 999.747 | 1000.23 | 1000.57 | 1001.1 | 1001.5
298.15 K | 997.458 | 997.903 | 998.251 | 998.559 | 999.04 | 999.367 | 999.891 | 1000.28
303.15 K | 996.057 | 996.499 | 996.841 | 997.145 | 997.618 | 997.949 | 998.455 | 998.84
308.15 K | 994.437 | 994.868 | 995.206 | 995.501 | 995.97 | 996.288 | 996.793 | 997.172
